# Results reported in US20070141661A1, “Cell extract for high-functioned cell-free protein synthesis and method of preparing the extract” (priority 2003, published 2007).
# Columns and labels:
# [1] = system: wheat embryo cell-free protein synthesis; experiment: Wheat embryo cell-free protein synthesis, batch method, 14C-leucine incorporation with DHFR mRNA; type: biochemical; conditions: for Inhibition of protein synthesis, nucleotide added alone: 0.5 mM AMP or 0.25 mM GMP alone, not shown in figures; for Effect of standard sugar on protein synthesis: final concentration 0.5 mM, FIG. 2C; for Effect on protein synthesis when added back in an equivalent amount to highly functionalized protein synthesis solution: filtrate or components isolated from filtrate, FIG. 1B/2B; for Time until protein synthesis reaction terminated after adding back: filtrate or filtrate-derived component added in equivalent amount
# Method: To an embryo extract solution, components necessary for translation were added and adjusted to prepare a translation reaction solution (30 mM HEPES-KOH, pH7.8, 100 mM potassium acetate, 2.7 mM magnesium acetate, 1.2 mM ATP, 0.25 mM GTP, 0.4 mM spermidine, 16 mM phosphocreatine, 40 μg/ml creatine kinase, 4 mM dithiothreitol, each 0.3 mM 19 kinds of leucine-lacking L-amino acids, and 0.005% sodium azide). The concentration of the embryo extract solution was 40 OD 260 nm per 1 ml of translation reaction solution). To this translation reaction solution, mRNA encoding dihydrofolate reductase (DHFR) (0.32 mg/ml) and ^14C-leucine were added, and protein synthesis was conducted at 26° C. through a batch method. The amount of synthesized protein was determined by measuring radioactivity of ^14C-labeled leucine incorporated into an acid-insoluble fraction as follows: a 3MM Whatman filter was blotted with […] of the reaction solution, and the filter was dipped into an ice-cold 10% TCA (trichloroacetic acid) for an hour, and then boiled in 5% TCA solution for 10 minutes. This filter was recovered and from which TCA and water were removed using ethanol and ether (50:50 vol), dried, and then radioactivity incorporated into a heat-TCA-insoluble fraction was measured by a liquid scintillation counter (toluene scintillator).
# Using these embryo extracts, following the method described in Example 1, and under a condition where the concentration of extract solution was 40 OD 260 nm, protein synthesis was conducted and their synthesis activities were compared. The activities of protein synthesis were determined by measuring radioactivities of ^14C/5 μL reaction solution, wherein ^14C had been incorporated into a heat-acid-insoluble fraction after a three hour-long reaction. As gelfiltration operation proceeded, the concentration of glucose in an extract solution was decreased, and completely corresponding to that, the activity of protein synthesis was increased, and simultaneously an extremely stabilized reaction solution for protein synthesis was produced.
# ATP in reaction solution = experiment: Temporal change of ATP concentration during protein synthesis reaction (cellulose thin layer chromatography, UV 260 nm); type: biochemical, wheat; conditions: for Concentration of ATP in system after adding sugar: 0.5 mM, within an hour after reaction, data not shown
# Method: Next, to study the relation between decrease in concentration of ATP and the inhibition and destabilization mechanism of protein synthesis reaction, temporal changes of concentration of ATP under incubation was measured in the present and absence of glucose. Experiment was conducted on chromatography using a cellulose thin layer plate (Avicel: purchased from Funakoshi Co., Ltd) and a developing solvent of isobutyric acid:0.5 M ammonia (5:3). Using a synthesis system prepared with an extract solution treated through Amicon ultramembrane six times, protein synthesis reaction was conducted with or without adding glucose (1 mM), and to samples fractionated with time, an equivalent amount of cold ethanol was added, then supernatants obtained from centrifugation at 10,000×g were used to fractionate nucleotides on a thin layer plate. Using standard nucleotides from a conventional method as a fractionation marker, ATP was extracted from fractions, which was scraped out from fluorescent blots visualized with irradiation of ultraviolet ray, and the values of ultraviolet absorption at 260 nm were measured, thereby temporary changes of concentration of ATP in a reaction solution were determined. In an experiment where glucose was not added, as reaction proceeded, the concentration of ATP in the reaction solution was decreased (large ● in FIG. 3B) and in three hours after the reaction, decreased to around 60%. Kinetics of this decrease in concentration of ATP is well consistent with a decrease in the concentration of glucose (● in FIG. 3A). […] Though data are not shown, when protein synthesis reaction was conducted using an extract solution of 25 OD 260 nm, a decrease in the concentration of ATP was hardly shown until four hours after reaction, and along with it, the protein synthesis reaction was sustained linearly almost for four hours.
# [2] = system: wheat embryo cell-free protein synthesis; experiment: Stability of protein synthesis activity after 3 h preincubation at 26° C. without mRNA, then solution exchange; type: biochemical; conditions: 0.5 mM, no mRNA or 14C-leucine during incubation, FIG. 2C
# Method: Next, destabilization of protein synthesis was further examined. Namely, samples obtained before and after Amicon ultra-centrifugal filtration as described above (but mRNA and ^14C-leucine had not been contained), were incubated for three hours at 26° C. (hereinafter, described as preincubation), and then both reaction solutions were respectively passed through Sephadex G25 spin column which had been equilibrated with a translation solution (containing amino acids, energy sources, various ions and buffer) for changing to a fresh translation solution, and after that, mRNA and ^14C-leucine were added to measure the activity of protein synthesis.
# Next, to confirm the destabilization phenomena of protein synthesis system resulting from the addition glucose and preincubation, the system was incubated in the presence of 0.5 mM glucose (the system contained neither mRNA or ^14C-leucine) and the stability was examined in the same manner as explained in FIG. 1B.
smiles,measurement,setting,value
Nc1ncnc2c1ncn2[C@@H]1O[C@H](COP(=O)(O)O)[C@@H](O)[C@H]1O [AMP],"Inhibition of protein synthesis, nucleotide added alone",[1],inhibition of protein synthesis was not exhibited
Nc1nc2c(ncn2[C@@H]2O[C@H](COP(=O)(O)O)[C@@H](O)[C@H]2O)c(=O)[nH]1 [GMP],"Inhibition of protein synthesis, nucleotide added alone",[1],inhibition of protein synthesis was not exhibited
O=C[C@@H](O)[C@H](O)[C@@H](O)[C@@H](O)CO [L-glucose],ATP remained after adding sugar,"ATP in reaction solution; 1 mM added, FIG. 3B",~50%
same,Effect of standard sugar on protein synthesis,[1],no inhibitory effects
C=C(OP(=O)(O)O)C(=O)O [Phosphoenolpyruvic acid],Effect of standard sugar on protein synthesis,[1],no inhibitory effects on protein synthesis
O=C(CO)[C@@H](O)[C@H](O)[C@H](O)CO [fructose],Concentration of ATP in system after adding sugar,ATP in reaction solution,below the detection limit
same,Effect of standard sugar on protein synthesis,[1],strong protein synthesis inhibitory effects
O=C[C@H](O)[C@@H](O)[C@@H](O)[C@H](O)CO [galactose],Concentration of ATP in system after adding sugar,ATP in reaction solution,below the detection limit
same,Effect of standard sugar on protein synthesis,[1],strong protein synthesis inhibitory effects
"O=C[C@H](O)[C@@H](O)[C@H](O)[C@H](O)CO [glucose, D-glucose]",ATP in the reaction solution after adding sugar,"ATP in reaction solution; 1 mM added, in an hour, FIG. 3B",almost all ATP in the reaction solution was consumed
same,Protein synthesis capacity after preincubation in the presence of sugar,[2],irreversibly inactivates a protein synthesis capacity
same,Effect on protein synthesis when added back in an equivalent amount to highly functionalized protein synthesis solution,[1],strong inhibitory and destabilization effects
same,Time until protein synthesis reaction terminated after adding back,[1],two
same,Effect of standard sugar on protein synthesis,[1],strong protein synthesis inhibitory effects
O=C[C@H](O)[C@@H](O)[C@H](O)[C@H](O)COP(=O)(O)O [glucose-6-phosphate],Effect of standard sugar on protein synthesis,[1],strong protein synthesis inhibitory effects
CC(=O)C(=O)O [pyruvic acid],Effect of standard sugar on protein synthesis,[1],no inhibitory effects on protein synthesis
OC[C@H]1O[C@H](OC[C@H]2O[C@H](O[C@]3(CO)O[C@H](CO)[C@@H](O)[C@@H]3O)[C@H](O)[C@@H](O)[C@@H]2O)[C@H](O)[C@@H](O)[C@H]1O [raffinose],Effect on protein synthesis when added back in an equivalent amount to highly functionalized protein synthesis solution,[1],did not show inhibitory effects
OC[C@H]1O[C@@](CO)(O[C@H]2O[C@H](CO)[C@@H](O)[C@H](O)[C@H]2O)[C@@H](O)[C@@H]1O [sucrose],Concentration of ATP in system after adding sugar,ATP in reaction solution,below the detection limit
same,Effect on protein synthesis when added back in an equivalent amount to highly functionalized protein synthesis solution,[1],strong inhibitory and destabilization effects
same,Time until protein synthesis reaction terminated after adding back,[1],two
same,Effect of standard sugar on protein synthesis,[1],strong protein synthesis inhibitory effects
